Test system: RSV A2 virus
Experiment: RSV CPE assay
Conditions: human respiratory syncytial virus, HEp-2, 120 h, read-out: RSV A2 (Hep-2 cell) EC50

Q: Which EC50 does the source give for `CC(C)OC(=O)OCO[P@](=O)(N[C@@H](C)C(=O)OC1CCC1)OC[C@H]1O[C@@](C#N)(c2ccc3c(N)ncnn23)[C@H](OC(=O)C(C)C)[C@@H]1OC(=O)C(C)C` [Compound 13b, (2R,3R,4R,5R)-2-(4-aminopyrrolo[2,1-f][1,2,4]triazin-7-yl)-2-cyano-5-((((S)-(((S)-1-cyclobutoxy-1-oxopropan-2-yl)amino)(((isopropoxycarbonyl)oxy)methoxy)phosphoryl)oxy)methyl)tetrahydrofuran-3,4-diyl bis(2-methylpropionate)] here?
A: 200 to 500 nM

Q: With `CC(=O)O[C@H]1[C@@H](OC(C)=O)[C@](C#N)(c2ccc3c(N)ncnn23)O[C@@H]1COP(=O)(OCOC(=O)OC(C)C)OCOC(=O)OC(C)C` [Compound 17, (2R,3R,4R,5R)-2-(4-aminopyrrolo[2,1-f][1,2,4]triazin-7-yl)-5-((((bis(((isopropoxycarbonyl)oxy)methoxy)phosphoryl))oxy)methyl)-2-cyanotetrahydrofuran-3,4-diyl diacetate] as the compound, how does the EC50 read?
A: 100 to 200 nM

Q: With `CC(C)OC(=O)OCOP(=O)(OCOC(=O)OC(C)C)OC[C@H]1O[C@@](C#N)(c2ccc3c(N)ncnn23)[C@H](OC(=O)C(C)C)[C@@H]1OC(=O)C(C)C` [Compound 19, (2R,3R,4R,5R)-2-(4-aminopyrrolo[2,1-f][1,2,4]triazin-7-yl)-5-((((bis(((isopropoxycarbonyl)oxy)methoxy))phosphoryl)oxy)methyl)-2-cyanotetrahydrofuran-3,4-diyl bis(2-methylpropionate)] as the compound, how does the EC50 read?
A: 200 to 500 nM

Q: For `CC(C)OC(=O)OCOP(=O)(OCOC(=O)OC(C)C)OC[C@H]1O[C@@](C#N)(c2ccc3c(N)ncnn23)[C@H](OC(=O)C(C)(C)C)[C@@H]1OC(=O)C(C)(C)C` [Compound 20, (2R,3R,4R,5R)-2-(4-aminopyrrolo[2,1-f][1,2,4]triazin-7-yl)-5-((((bis(((isopropoxycarbonyl)oxy)methoxy))phosphoryl)oxy)methyl)-2-cyanotetrahydrofuran-3,4-diyl bis(2,2-dimethylpropionate)], which EC50 is on record?
A: > 1000 nM

Q: Which EC50 does the source give for `CC(C)OC(=O)OCO[P@@](=O)(OC[C@H]1O[C@@](C#N)(c2ccc3c(N)ncnn23)[C@H](OC(=O)C(C)C)[C@@H]1OC(=O)C(C)C)Oc1ccc(C(C)(C)C)cc1` [Compound 24a, (2R,3R,4R,5R)-2-(4-aminopyrrolo[2,1-f][1,2,4]triazin-7-yl)-5-((((S)-(4-tert-butylphenoxy)(((isopropoxycarbonyl)oxy)methoxy)phosphoryl)oxy)methyl)-2-cyanotetrahydrofuran-3,4-diyl bis(2-methylpropionate)] here?
A: > 1000 nM

Q: For `CC(C)C(=O)O[C@H]1[C@@H](OC(=O)C(C)C)[C@](C#N)(c2ccc3c(N)ncnn23)O[C@@H]1COP(=O)(OCOC(=O)C(C)(C)C)OCOC(=O)C(C)(C)C` [Compound 29, (2R,3R,4R,5R)-2-(4-aminopyrrolo[2,1-f][1,2,4]triazin-7-yl)-5-((((bis(((tert-butylcarbonyl)oxy)methoxy))phosphoryl)oxy)methyl)-2-cyanotetrahydrofuran-3,4-diyl bis(2-methylpropionate)], which EC50 is on record?
A: 500 to 1000 nM

Q: How did the EC50 turn out when `CC(C)C(=O)O[C@H]1[C@@H](OC(=O)C(C)C)[C@](C#N)(c2ccc3c(N)ncnn23)O[C@@H]1COP(=O)(OCCSC(=O)C(C)(C)C)OCCSC(=O)C(C)(C)C` [Compound 30, (2R,3R,4R,5R)-2-(4-aminopyrrolo[2,1-f][1,2,4]triazin-7-yl)-5-((((bis(2-(pivaloylthio)ethoxy))phosphoryl)oxy)methyl)-2-cyanotetrahydrofuran-3,4-diyl bis(2-methylpropionate)] was run?
A: 200 to 500 nM

Q: `CCC(CC)COC(=O)[C@H](Cc1ccccc1)N[P@@](=O)(OCOC(=O)OC(C)C)OC[C@H]1O[C@@](C#N)(c2ccc3c(N)ncnn23)[C@H](OC(=O)C(C)C)[C@@H]1OC(=O)C(C)C` [Compound 31b, (2R,3R,4R,5R)-2-(4-aminopyrrolo[2,1-f][1,2,4]triazin-7-yl)-2-cyano-5-((((S)-(((S)-1-(2-ethylbutoxy)-1-oxo-3-phenylpropan-2-yl)amino)(((isopropoxycarbonyl)oxy)methoxy)phosphoryl)oxy)methyl)tetrahydrofuran-3,4-diyl bis(2-methylpropionate)] was tested. Which EC50 did it give?
A: 200 to 500 nM

Q: Which EC50 does the source give for `CCC(CC)COC(=O)C1(N[P@@](=O)(OCOC(=O)OC(C)C)OC[C@H]2O[C@@](C#N)(c3ccc4c(N)ncnn34)[C@H](OC(=O)C(C)C)[C@@H]2OC(=O)C(C)C)CCC1` [Compound 32b, (2R,3R,4R,5R)-2-(4-aminopyrrolo[2,1-f][1,2,4]triazin-7-yl)-2-cyano-5-((((S)-((1-((2-ethylbutoxy)carbonyl)cyclobutyl)amino)(((isopropoxycarbonyl)oxy)methoxy)phosphoryl)oxy)methyl)tetrahydrofuran-3,4-diyl bis(2-methylpropionate)] here?
A: 500 to 1000 nM

Q: Which EC50 does the source give for `CCCCCOC(=O)C[C@H](N[P@](=O)(OC[C@H]1O[C@@](C#N)(c2ccc3c(N)ncnn23)[C@H](OC(=O)C(C)C)[C@@H]1OC(=O)C(C)C)Oc1ccccc1)C(=O)OCCCCC` [Compound 38b, (2R,3R,4R,5R)-2-(4-aminopyrrolo[2,1-f][1,2,4]triazin-7-yl)-2-cyano-5-((((S)-(((S)-1,4-dipentyloxy-1,4-dioxobutan-2-yl)amino)(phenoxy)phosphoryl)oxy)methyl)tetrahydrofuran-3,4-diyl bis(2-methylpropionate)] here?
A: < 100 nM

Q: `CCCCCOC(=O)C[C@H](N[P@@](=O)(OC[C@H]1O[C@@](C#N)(c2ccc3c(N)ncnn23)[C@H](OC(=O)C(C)C)[C@@H]1OC(=O)C(C)C)Oc1ccc(C(C)(C)C)cc1)C(=O)OCCCCC` [Compound 39a, (2R,3R,4R,5R)-2-(4-aminopyrrolo[2,1-f][1,2,4]triazin-7-yl)-2-cyano-5-((((R)-(((S)-1,4-dipentyloxy-1,4-dioxobutan-2-yl)amino)(4-tert-butylphenoxy)phosphoryl)oxy)methyl)tetrahydrofuran-3,4-diyl bis(2-methylpropionate)] was tested. Which EC50 did it give?
A: < 100 nM

Q: `CCCCCOC(=O)C[C@H](N[P@](=O)(OC[C@H]1O[C@@](C#N)(c2ccc3c(N)ncnn23)[C@H](OC(=O)C(C)C)[C@@H]1OC(=O)C(C)C)Oc1ccc(C(C)(C)C)cc1)C(=O)OCCCCC` [Compound 39b, (2R,3R,4R,5R)-2-(4-aminopyrrolo[2,1-f][1,2,4]triazin-7-yl)-2-cyano-5-((((S)-(((S)-1,4-dipentyloxy-1,4-dioxobutan-2-yl)amino)(4-tert-butylphenoxy)phosphoryl)oxy)methyl)tetrahydrofuran-3,4-diyl bis(2-methylpropionate)] was tested. Which EC50 did it give?
A: < 100 nM

Q: Which EC50 does the source give for `CCC(CC)COC(=O)[C@H](Cc1ccccc1)N[P@](=O)(OC[C@H]1O[C@@](C#N)(c2ccc3c(N)ncnn23)[C@H](OC(=O)C(C)C)[C@@H]1OC(=O)C(C)C)Oc1ccccc1` [Compound 41b, (2R,3R,4R,5R)-2-(4-aminopyrrolo[2,1-f][1,2,4]triazin-7-yl)-2-cyano-5-((((S)-(((S)-1-(2-ethylbutoxy)-1-oxo-3-phenylpropan-2-yl)amino)(phenoxy)phosphoryl)oxy)methyl)tetrahydrofuran-3,4-diyl bis(2-methylpropionate)] here?
A: < 100 nM

Q: How did the EC50 turn out when `CC(C)C(=O)O[C@H]1[C@@H](OC(=O)C(C)C)[C@](C#N)(c2ccc3c(N)ncnn23)O[C@@H]1CO[P@](=O)(N[C@@H](CC(=O)OC1CCC1)C(=O)OC1CCC1)Oc1ccccc1` [Compound 54a, (2R,3R,4R,5R)-2-(4-aminopyrrolo[2,1-f][1,2,4]triazin-7-yl)-2-cyano-5-((((R)-(((S)-1,4-dicyclobutoxy-1,4-dioxobutan-2-yl)amino)(phenoxy)phosphoryl)oxy)methyl)tetrahydrofuran-3,4-diyl bis(2-methylpropionate)] was run?
A: 100 to 200 nM

Q: Which EC50 does the source give for `CC(C)C(=O)O[C@H]1[C@@H](OC(=O)C(C)C)[C@](C#N)(c2ccc3c(N)ncnn23)O[C@@H]1CO[P@@](=O)(N[C@@H](CC(=O)OC1CCC1)C(=O)OC1CCC1)Oc1ccccc1` [Compound 54b, (2R,3R,4R,5R)-2-(4-aminopyrrolo[2,1-f][1,2,4]triazin-7-yl)-2-cyano-5-((((S)-(((S)-1,4-dicyclobutoxy-1,4-dioxobutan-2-yl)amino)(phenoxy)phosphoryl)oxy)methyl)tetrahydrofuran-3,4-diyl bis(2-methylpropionate)] here?
A: < 100 nM

Q: Which EC50 does the source give for `CC(C)(C)C(=O)O[C@H]1[C@@H](OC(=O)C(C)(C)C)[C@](C#N)(c2ccc3c(N)ncnn23)O[C@@H]1CO[P@](=O)(N[C@@H](CC(=O)OC1CCC1)C(=O)OC1CCC1)Oc1ccccc1` [Compound 57a, (2R,3R,4R,5R)-2-(4-aminopyrrolo[2,1-f][1,2,4]triazin-7-yl)-2-cyano-5-((((R)-(((S)-1,4-dicyclobutoxy-1,4-dioxobutan-2-yl)amino)(phenoxy)phosphoryl)oxy)methyl)tetrahydrofuran-3,4-diyl bis(2,2-dimethylpropionate)] here?
A: 500 to 1000 nM

Same assay, conditions: read-out: RSV A2 (Hep-2 cell) EC50; HEp-2 cells, RSV A2 virus, 5 days, CCK8

Q: How did the EC50 turn out when `CCC(CC)COC(=O)[C@H](Cc1ccccc1)N[P@@](=O)(OC[C@H]1O[C@@](C#N)(c2ccc3c(N)ncnn23)[C@H](OC(=O)C(C)C)[C@@H]1OC(=O)C(C)C)Oc1ccc(C(C)(C)C)cc1` [Compound 53a, (2R,3R,4R,5R)-2-(4-aminopyrrolo[2,1-f][1,2,4]triazin-7-yl)-2-cyano-5-((((((S)-1-(2-ethylbutoxy)-1-oxo-3-phenylpropan-2-yl)amino)((R)-4-tert-butylphenoxy)phosphoryl)oxy)methyl)tetrahydrofuran-3,4-diyl bis(2-methylpropionate)] was run?
A: < 100 nM

Q: With `CCC(CC)COC(=O)[C@H](Cc1ccccc1)N[P@](=O)(OC[C@H]1O[C@@](C#N)(c2ccc3c(N)ncnn23)[C@H](OC(=O)C(C)C)[C@@H]1OC(=O)C(C)C)Oc1ccc(C(C)(C)C)cc1` [Compound 53b, (2R,3R,4R,5R)-2-(4-aminopyrrolo[2,1-f][1,2,4]triazin-7-yl)-2-cyano-5-((((((S)-1-(2-ethylbutoxy)-1-oxo-3-phenylpropan-2-yl)amino)((S)-4-tert-butylphenoxy)phosphoryl)oxy)methyl)tetrahydrofuran-3,4-diyl bis(2-methylpropionate)] as the compound, how does the EC50 read?
A: < 100 nM

— patent publication EP4617278A1, “NUCLEOTIDE ANALOG, AND COMPOSITION AND USE THEREOF” (priority 2022, dated 2024)
